The results in this text go back to PubChem BioAssay (NCI).

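Test compounds were applied to cells in 96-well plates for 48 hours at 5 doses. Here, GI50 denotes the concentration required for 50% inhibition of growth. At the TGI there is no net growth.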

In the first assay the test system is HOP-62 NSCLC. In words: NCI anticancer screen, dose series, 48 h.
With `CSc1ccc(N(C)c2nc(C)nc3c2CCC3)cc1`, the GI50 was under 0.01 µM and the TGI came to 21.3 µM.

In the case of `O=C1/C(=C/c2ccc([N+](=O)[O-])cc2)COc2ccc(O)cc21`, the GI50 is 49.8 µM and the TGI is over 100 µM.

`CCOC(OC1=C(C#N)CCCC1)C(CC)[Se]c1ccccc1` (stereo not drawn) yielded a TGI of over 100 µM.

Take `COC(=O)c1ccc2c(c1)C(=O)c1c-2n(CCCN=[N+]=[N-])c(=O)c2cc([N+](=O)[O-])ccc12`: the GI50 is 25.8 µM and the TGI worked out at 67.5 µM.

As to `C=C1C(=O)C23C(O)C1CC[C@H]2C12CCCC(C)(COC(C)=O)[C@H]1[C@H](O)[C@]3(O)OC2` (stereo partly drawn), the TGI turned out to be 8.56 µM.

For `O=S1CSSC1`, the TGI is 98.6 µM.

In the case of `CN(C)C(=S)Nc1nnc(Nc2ccccc2)s1`, the TGI was over 100 µM.

`CN1c2ccccc2SC2C(c3ccccc3)=NOC21` (stereo not drawn) yielded a TGI of over 100 µM.

The compound `COc1c(O)c(OC)c2oc(-c3ccc(O)cc3)c(OC)c(=O)c2c1O` gave a TGI of 94.9 µM.

Regarding `O=[N+]([O-])c1ccc(-c2cc3c(Nc4ccc(Cl)c(C(F)(F)F)c4)ncnc3s2)cc1`, the GI50 is 3.13 µM and the TGI was over 100 µM.

`Cc1ccccc1/C=C/C(=O)c1ccccc1` displayed a TGI of 30.8 µM.

For the compound `CC1(C)CC(=O)C(CC2C(=O)c3ccccc3C2=O)C(=O)C1`, the TGI is over 100 µM.

With `CCOC(=O)N1CCN(CCCCCOc2ccccc2C2CCCCC2)CC1`, the GI50 was 2.52 µM and the TGI is 8.05 µM.

`Cc1ccc(C)c(N2C(=O)C(=O)C(c3nc4ccccc4s3)C(=Nc3cccc4c(=O)[nH][nH]c(=O)c34)C2=O)c1` (stereo not drawn) came in with a TGI of over 100 µM.

For the compound `O=C1c2ccccc2-c2c1c1ccccc1c(=O)n2CCNCCn1c2c(c3ccccc3c1=O)C(=O)c1ccccc1-2`, the GI50 was over 25 µM and the TGI was over 25 µM.

For the compound `CCCCCCCCCCCCCC[n+]1cccc(C(N)=O)c1`, the GI50 was 1.35 µM and the TGI is 3.41 µM.

As for `Cc1cccc(C)c1N1C(=O)C(=O)C(c2nc3ccccc3s2)C(=Nc2cccc3c(=O)[nH][nH]c(=O)c23)C1=O` (stereo not drawn), the TGI was over 100 µM.

Turning to `C/C1=C\CC[C@@](C)(O)[C@@H]2C[C@H](CC/C(C)=C/CC1)C1(CC1)C(=O)O2`, the GI50 was 45.1 µM and the TGI is over 100 µM.

Compound `COc1cc(C2c3cc4c(cc3[C@@H](Nc3ccc5c(c3)OCCO5)C3COC(=O)[C@H]23)OCO4)cc(OC)c1O` (stereo partly drawn) returned a TGI of 1.31 µM.

The subject of another assay is MDA-MB-231 breast. In words: NCI anticancer screen, dose series, 48 h.
Turning to `O=C(/C=C/c1cccc(O)c1)c1cccc(-n2cc(-c3ccc4ccccc4c3)[nH]c2=O)c1`, the GI50 was 1.66 µM and the TGI is 4.9 µM.

Take `COc1ccc2[nH]c(-c3ccc(O)cc3)cc(=O)c2c1`: the TGI is over 100 µM.

Turning to `Cc1cc(C)n(C2=NS(=O)(=O)c3ccccc3N2C)n1`, the TGI is over 100 µM.

Turning to `O=C1c2cccc3cccc(c23)C(=O)N1O`, the TGI is over 100 µM.

For the compound `CSc1ccc(N(C)c2nc(C)nc3c2CCC3)cc1`, the GI50 is under 0.01 µM and the TGI turned out to be 72.4 µM.

With `O=C1/C(=C/c2ccc([N+](=O)[O-])cc2)COc2ccc(O)cc21`, the GI50 is 4.77 µM and the TGI was 36.9 µM.

In the case of `COC(=O)c1ccc2c(c1)C(=O)c1c-2n(CCCN=[N+]=[N-])c(=O)c2cc([N+](=O)[O-])ccc12`, the GI50 was 58 µM and the TGI is over 100 µM.

Consider `CN1c2ccccc2SC2C(c3ccccc3)=NOC21` (stereo not drawn), for which the TGI was over 100 µM.

`COc1c(O)c(OC)c2oc(-c3ccc(O)cc3)c(OC)c(=O)c2c1O` gave a TGI of over 100 µM.

As to `O=[N+]([O-])c1ccc(-c2cc3c(Nc4ccc(Cl)c(C(F)(F)F)c4)ncnc3s2)cc1`, the GI50 was 0.382 µM and the TGI amounted to 1.63 µM.

Turning to `CCOC(=O)N1CCN(CCCCCOc2ccccc2C2CCCCC2)CC1`, the GI50 was 5.1 µM and the TGI was found to be 21.5 µM.

On to `O=C1c2ccccc2-c2c1c1ccccc1c(=O)n2CCNCCn1c2c(c3ccccc3c1=O)C(=O)c1ccccc1-2`, for which the GI50 was 18.2 µM and the TGI was over 25 µM.

`CCCCCCCCCCCCCC[n+]1cccc(C(N)=O)c1`: the GI50 was 1.45 µM and the TGI was 4.54 µM.

As to `C/C1=C\CC[C@@](C)(O)[C@@H]2C[C@H](CC/C(C)=C/CC1)C1(CC1)C(=O)O2`, the GI50 was 13.6 µM and the TGI is 32.6 µM.

Consider `COc1cc(C2c3cc4c(cc3[C@@H](Nc3ccc5c(c3)OCCO5)C3COC(=O)[C@H]23)OCO4)cc(OC)c1O` (stereo partly drawn), for which the TGI was over 100 µM.

Another assay relates to SK-MEL-28 melanoma. In words: NCI anticancer screen, dose series, 48 h.
As for `O=C(/C=C/c1cccc(O)c1)c1cccc(-n2cc(-c3ccc4ccccc4c3)[nH]c2=O)c1`, the GI50 was 3.79 µM and the TGI stood at 12.4 µM.

For `COc1ccc2[nH]c(-c3ccc(O)cc3)cc(=O)c2c1`, the TGI is over 100 µM.

Turning to `Cc1cc(C)n(C2=NS(=O)(=O)c3ccccc3N2C)n1`, the TGI is over 100 µM.

The compound `O=C1c2cccc3cccc(c23)C(=O)N1O` came in with a TGI of over 100 µM.

As to `CSc1ccc(N(C)c2nc(C)nc3c2CCC3)cc1`, the GI50 is 1.38 µM and the TGI stood at 36.6 µM.

As to `O=C1/C(=C/c2ccc([N+](=O)[O-])cc2)COc2ccc(O)cc21`, the GI50 was 5.11 µM and the TGI was 22.9 µM.

For `CCOC(OC1=C(C#N)CCCC1)C(CC)[Se]c1ccccc1` (stereo not drawn), the TGI stood at 61.8 µM.

Regarding `COC(=O)c1ccc2c(c1)C(=O)c1c-2n(CCCN=[N+]=[N-])c(=O)c2cc([N+](=O)[O-])ccc12`, the GI50 was over 100 µM and the TGI was over 100 µM.

In turn, `C=C1C(=O)C23C(O)C1CC[C@H]2C12CCCC(C)(COC(C)=O)[C@H]1[C@H](O)[C@]3(O)OC2` (stereo partly drawn) gave a TGI of 2.97 µM.

`O=S1CSSC1` yielded a TGI of 59.8 µM.

Consider `CN(C)C(=S)Nc1nnc(Nc2ccccc2)s1`, for which the TGI was over 100 µM.

For `CN1c2ccccc2SC2C(c3ccccc3)=NOC21` (stereo not drawn), the TGI was over 100 µM.

In turn, `COc1c(O)c(OC)c2oc(-c3ccc(O)cc3)c(OC)c(=O)c2c1O` yielded a TGI of over 100 µM.
